Measurements taken from ChEMBL document CHEMBL4622890, “Antiproliferative Flavanoid Dimers Isolated from Brazilian Red Propolis” (J Nat Prod, 2020).

Assays:
[1] = Antioxidant activity assessed as hydroxyl radical scavenging activity after 5 mins by H2DCF-DA dye based fluorescence spectrophotometric analysis; format: functional
[2] = Chemopreventive index, ratio of IC50 for mouse Hepa-1c1c7 cells to drug level required to double NADPH:quinone reductase activity in mouse Hepa-1c1c7 cells
HT-29 = assay: Cytotoxicity against human HT-29 cells after 3 days by sulforhodamine B assay; format: functional, cell-based; details: HT-29, 72 h
U-251 = assay: Cytotoxicity against human U251 cells after 48 hrs by MTT assay; format: functional; details: U-251, 48 h
MCF7 = assay: Cytotoxicity against human MCF7 cells after 48 hrs by MTT assay; format: functional; details: MCF7, 48 h
NCI/ADR-RES = assay: Cytotoxicity against human NCI-ADR-RES cells after 48 hrs by MTT assay; format: functional
PC-3 = assay: Cytotoxicity against human PC3 cells after 48 hrs by MTT assay; format: functional; details: PC-3, 48 h
Transcription factor p65 = Transcription factor p65 (Homo sapiens, UniProt Q04206); assay: Inhibition of NF-kappaB p65 in human HeLa cells nuclear extract by chemiluminescent assay; format: cell-free
Transcription factor p65, sequence (Q04206 whole entry): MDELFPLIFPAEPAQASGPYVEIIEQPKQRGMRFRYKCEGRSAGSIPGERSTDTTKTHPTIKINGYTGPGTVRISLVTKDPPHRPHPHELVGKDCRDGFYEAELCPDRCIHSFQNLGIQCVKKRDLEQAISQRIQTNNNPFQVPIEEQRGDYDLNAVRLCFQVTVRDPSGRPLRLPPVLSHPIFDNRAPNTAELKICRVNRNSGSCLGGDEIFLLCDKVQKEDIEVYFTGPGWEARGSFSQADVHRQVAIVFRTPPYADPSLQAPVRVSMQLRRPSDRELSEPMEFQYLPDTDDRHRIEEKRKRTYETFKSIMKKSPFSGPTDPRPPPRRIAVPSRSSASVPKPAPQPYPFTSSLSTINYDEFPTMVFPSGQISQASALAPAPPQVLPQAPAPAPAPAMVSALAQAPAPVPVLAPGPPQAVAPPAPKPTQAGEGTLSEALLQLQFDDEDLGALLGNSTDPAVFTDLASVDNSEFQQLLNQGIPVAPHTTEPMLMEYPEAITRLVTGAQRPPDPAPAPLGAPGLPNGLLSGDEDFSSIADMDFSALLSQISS

| Compound | ED50 [1] [µM] | Ratio [2] | IC50 (HT-29) [µM] | TGI (U-251) [µM] | TGI (MCF7) [µM] | TGI (NCI/ADR-RES) [µM] | TGI (PC-3) [µM] | also measured |
| --- | --- | --- | --- | --- | --- | --- | --- | --- |
| C=CC(C)(C)c1cc(-c2oc3cc(O)ccc3c2Cc2cc(-c3cc4cc(C(C)(C)C=C)c(O)cc4oc3=O)c(O)cc2O)c(O)cc1O | 0.7 to 0.9 | 1.3 - 7.4 | 1.6 to 4.5 |  |  |  |  |  |
| COc1ccc2c(c1)OCC(c1cc(-c3oc4cc(OC)ccc4c3Cc3ccc(O)cc3O)c(O)cc1O)C2 (stereo not drawn) |  |  |  | 25 | 34.6 | 29.9 | 21.9 | LC50 (PC-3): ≥ 10 µM |
| C=CC(C)(C)c1cc(C(=O)c2c(-c3cc(-c4cc5cc(C(C)(C)C=C)c(O)cc5oc4=O)c(O)cc3O)oc3cc(O)ccc23)c(O)cc1O | 0.7 to 0.9 | 1.3 - 7.4 | 1.6 to 4.5 |  |  |  |  | IC50 (Transcription factor p65): 6 nM |
| COc1cccc2c1C(=O)c1c(O)c3c(c(O)c1C2=O)C[C@@](O)(C(=O)CO)C[C@@H]3O[C@H]1C[C@H](N)[C@H](O)[C@H](C)O1 [DOXORUBICIN] |  |  |  | 6.9 | 12.2 | 16.1 | 4 |  |
| C[S+]([O-])CCCCN=C=S (stereo not drawn) [SULFORAPHANE] |  | 21.4 |  |  |  |  |  |  |
| C=CC(C)(C)c1cc2c(cc1O)OC[C@H](c1cc(-c3oc4cc(O)ccc4c3C(=O)c3cc(C(C)(C)C=C)c(O)cc3O)c(O)cc1O)C2 | 0.7 to 0.9 | 1.3 - 7.4 | 1.6 to 4.5 |  |  |  |  |  |
| COc1ccc2c(c1)OCC(c1cc(Cc3c(-c4ccc(O)cc4O)oc4cc(OC)ccc34)c(O)cc1O)C2 (stereo not drawn) |  |  |  | 17.2 | 27 | 19.1 | 19.1 | CC50 (U-251; read-out: LC50 (the source's name)): ≥ 10 µM; LC50 (lethal concentration 50%) (MCF7): ≥ 10 µM; LC50 (concentration killing 50% of cells) (NCI/ADR-RES): ≥ 10 µM; LC50 (PC-3): ≥ 10 µM |
